19 compounds from US9023340B2, “Wnt inhibitors for human stem cell differentiation” (ChemRegen, Inc., priority 2011, dated 2015) can be followed below.

Molecules are shown by their SMILES.

One assay has as its system Wnt signaling. Kind of assay: Wnt assay (Super TOPflash/Wnt3a dual-luciferase reporter in 293T cells). It is filed as cell-based. Conditions: Homo sapiens, HEK-293T, TOPflash luciferase normalized to renilla; for inhibition at 1 µM: 1000 nM compound, read-out: Wnt Assay % inh. @ 1000 nM. On the procedure: Wnt assay protocol: 293T cells were grown in DMEM-high glucose (phenol red) supplemented with 10% (v/v) FBS and 1 mM L-glutamine. 1 million (M) cells were transfected with 1 μg Super(7×)TOPflash (Addgene plasmid 12456: M50 Super 8× TOPflash; 1 μg Wnt3a)—and 0.1 μg TK-Renilla-Lux (pRL-TK vector)-vectors using lipofectamine 2000 reagent according to the manufacturer's protocol. Cells were allowed to adhere for 8-10 hours, lifted with trypsin/EDTA, centrifuged, homogenized and counted before seeding 25,000 cells/well onto 96-well plates. After letting cells settle and attach for 1-2 hours in the incubator, a dose of test compound (and media/DMSO controls) was added. Plates were incubated for 18-20 hours and luciferase activities were determined using a Dual-Luciferase assay kit according to the manufacturer's instructions. Chemiluminescence was recorder on a plate reader instrument, and firefly-derived luminescence was normalized against renilla luminescence. Data were derived from at least two independent experiments, with a minimum of three replicates per condition. Non-linear regression analysis (log dose/response) was done using Prism 5 software.

Assay [1] deals with hESC H9 lines carrying MYH6-mCherry reporters. The assay is described as follows: Human embryonic stem cell high content screening assay (cardiogenesis, MYH6-mCherry reporter). It is filed as cell-based. The conditions noted are these: 1250 nM compound; MYH6-mCherry fluorescence readout normalized to DMSO treated wells. The method, then:
Human embryonic stem cell (hESC) H9 lines carrying MYH6-mCherry reporters were maintained: in brief, cells were grown on a mouse embryonic fibroblast coated matrigel plate in Knock Out DMEM media supplemented with 20% Knock Out Serum Replacement and 8 ng/ml bFGF. For embryoid body (EB) differentiation, hESC were mechanically passaged onto gelatin-coated dishes preseeded with mouse embryonic fibroblasts. After 4 days hESC colonies were lifted off with a 10 minute 1 mg/ml collagenase IV treatment and directly differentiated in StemPro 34 with addition of 0.5 ng/ml Bmp4 from day 0-1, 10 ng/ml Bmp4, 5 ng/ml bFGF and 3 ng/ml Activin A from day 1-4. At day 4 and were dissociated gently to single cells with TrypLE. Single cells were then transferred in gelatin coated 384-well optical plates in StemPro 34 with […] FGF at a seeding density of 250,000 cells/cm^2. At this point cells were exposed to test compounds. At day 10, media with compound was removed and exchanged for a serum free media (SFM). T3, the thyroid hormone analog triiodothyronine, was added at day 10 to increase the red signal driven by the MYH6 promoter for more reliable imaging. […] For RT-qPCR analysis T3 treatment was omitted to avoid interference with the biological mRNA expression of MYH6. Media was changed to PBS at day 14 and red fluorescence was imaged on an InCell 1000 high throughput microscope. For the quantification of cardiac induction, image analysis was done with the Cyteseer Image Analysis Software package by measuring the total area and intensity of the MYH6-mCherry reporter in each well. The MYH6-expression levels indicated in the graphs represent the multiplication of the total area and intensity of red fluorescence.
For toxicity assessment the hESC cell line was engineered for screening with a H2B-GFP reporter, allowing quantification of the cell number. Using Cyteseer, total GFP signal was quantified in each well. Wells with a GFP reduction of 20% or more (relative to vehicle only controls) were flagged for toxicity and were manually confirmed under a bright field microscope for evidence of cell death.
For the screens, Z scores (Z score=(average of treated−average of DMSO)/StDev of DMSO) were calculated using the fluorescence readout for each concentration normalized to DMSO treated wells. Integrated Z scores over all concentrations were calculated by adding the Z scores of the 3 concentrations tested. Table 2 reports Z scores at a compound concentration of 1250 nM.

`O=C1[C@@H]2[C@@H]3CC[C@@H](C3)[C@@H]2C(=O)N1[C@H]1CC[C@H](C(=O)Nc2cccnc2)CC1` [Compound 1] had an IC50 with Wnt signaling of 42 nM. Besides, the “Cardiogenesis Assay Z score vs DMSO @ 1250 nM” value in assay [1] is 0.6. Taken in the same sequence, the figures for `O=C1[C@@H]2[C@@H]3CC[C@@H](C3)[C@@H]2C(=O)N1[C@H]1CC[C@H](C(=O)Nc2ccncc2)CC1` [Compound 2] were 47 nM and 0.2. Take `CC(=O)c1ccccc1NC(=O)[C@H]1CC[C@H](N2C(=O)[C@@H]3[C@@H]4CC[C@@H](C4)[C@@H]3C2=O)CC1` [Compound 3]: in the assay with Wnt signaling, the inhibition at 1 µM amounted to 91 ± 1% and inhibition was half-maximal at 14 nM (IC50). The “Cardiogenesis Assay Z score vs DMSO @ 1250 nM” value in assay [1] is listed as 132.9.

In the assay on Wnt signaling, `O=C1[C@@H]2[C@@H]3CC[C@@H](C3)[C@@H]2C(=O)N1[C@H]1CC[C@H](C(=O)Nc2ccccn2)CC1` [Compound 4] showed a half-maximal inhibitory concentration (IC50) of 86 nM. Besides, the “Cardiogenesis Assay Z score vs DMSO @ 1250 nM” value in assay [1] is given as 1.8. `COc1ccc(NC(=O)[C@H]2CC[C@H](N3C(=O)[C@@H]4[C@@H]5CC[C@@H](C5)[C@@H]4C3=O)CC2)cn1` [Compound 5]: in the assay with Wnt signaling, the inhibition at 1 µM was found to be 75 ± 2% and the half-inhibitory concentration (IC50) was determined as 344 nM. Taken in the same sequence, the figures for `Cc1ccc(NC(=O)[C@H]2CC[C@H](N3C(=O)[C@@H]4[C@@H]5CC[C@@H](C5)[C@@H]4C3=O)CC2)cn1` [Compound 6] were 48 ± 7% and 1380 nM.

On to `O=C1[C@@H]2[C@@H]3CC[C@@H](C3)[C@@H]2C(=O)N1[C@H]1CC[C@H](C(=O)Nc2cccnc2Cl)CC1` [Compound 7], for which the half-inhibitory concentration (IC50) in the assay with Wnt signaling stood at 166 nM. In addition, the “Cardiogenesis Assay Z score vs DMSO @ 1250 nM” value in assay [1] is reported as 3.1. `O=C1[C@@H]2[C@@H]3CC[C@@H](C3)[C@@H]2C(=O)N1[C@H]1CC[C@H](C(=O)Nc2ccc(C(F)(F)F)nc2)CC1` [Compound 8]: in the assay with Wnt signaling, the inhibition at 1 µM amounted to 46 ± 7% and half-maximal inhibition (IC50) required 870 nM. Taken in the same sequence, the figures for `O=C1[C@@H]2[C@@H]3CC[C@@H](C3)[C@@H]2C(=O)N1[C@H]1CC[C@H](C(=O)Nc2ccnc(Cl)c2)CC1` [Compound 9] were 68 ± 4% and 374 nM. In turn, `COC(=O)c1ccccc1NC(=O)[C@H]1CC[C@H](N2C(=O)[C@@H]3[C@@H]4CC[C@@H](C4)[C@@H]3C2=O)CC1` [Compound 10] gave a 50% inhibitory concentration (IC50) with Wnt signaling of 67 nM. For the same compound, the “Cardiogenesis Assay Z score vs DMSO @ 1250 nM” value in assay [1] turned out to be 44.9.

Compound `O=C1c2ccccc2-c2cccc(NC(=O)[C@H]3CC[C@H](N4C(=O)[C@@H]5[C@@H]6CC[C@@H](C6)[C@@H]5C4=O)CC3)c21` [Compound 11] registered a concentration for half-maximal inhibition (IC50) with Wnt signaling of 193 nM. Further, the “Cardiogenesis Assay Z score vs DMSO @ 1250 nM” value in assay [1] was 42.7. As to `CC(=O)c1ccccc1NC(=O)C1CCC(N2C(=O)[C@@H]3[C@@H]4CC[C@@H](C4)[C@@H]3C2=O)CC1` (stereo partly shown) [Compound 12], in the assay with Wnt signaling, the inhibition at 1 µM was determined as 91 ± 1% and the half-maximal inhibitory concentration (IC50) turned out to be 23 nM. Further, the “Cardiogenesis Assay Z score vs DMSO @ 1250 nM” value in assay [1] came to 117.0. `O=C1[C@@H]2[C@@H]3CC[C@@H](C3)[C@@H]2C(=O)N1[C@H]1CC[C@H](C(=O)Nc2cncc(O)c2)CC1` [Compound 13]: the IC50 with Wnt signaling came out at 152 nM. Also, the “Cardiogenesis Assay Z score vs DMSO @ 1250 nM” value in assay [1] is on record as 99.2. Regarding `O=C1CCCc2cccc(NC(=O)[C@H]3CC[C@H](N4C(=O)[C@@H]5[C@@H]6CC[C@@H](C6)[C@@H]5C4=O)CC3)c21` [Compound 14], the IC50 with Wnt signaling was determined as 19 nM. Moreover, the “Cardiogenesis Assay Z score vs DMSO @ 1250 nM” value in assay [1] is given as 69.6. With `CC(=O)c1ncccc1NC(=O)[C@H]1CC[C@H](N2C(=O)[C@@H]3[C@@H]4CC[C@@H](C4)[C@@H]3C2=O)CC1` [Compound 17], the 50% inhibitory concentration (IC50) with Wnt signaling turned out to be 2 nM. For the same compound, in assay [1], the “Cardiogenesis Assay Z score vs DMSO @ 1250 nM” value is on record as 236.2. In the case of `CC(=O)c1ccncc1NC(=O)[C@H]1CC[C@H](N2C(=O)[C@@H]3[C@@H]4CC[C@@H](C4)[C@@H]3C2=O)CC1` [Compound 18], inhibition in the assay on Wnt signaling was half-maximal at 287 nM (IC50). The “Cardiogenesis Assay Z score vs DMSO @ 1250 nM” value in assay [1] was 0.2. As for `O=C1[C@@H]2[C@@H]3CC[C@@H](C3)[C@@H]2C(=O)N1[C@H]1CC[C@H](C(=O)Nc2ccc(Br)cn2)CC1` [Compound 19], the inhibition at 1 µM in the assay on Wnt signaling is 68 ± 4%.

For the compound `Cc1ccncc1NC(=O)[C@H]1CC[C@H](N2C(=O)[C@@H]3[C@@H]4CC[C@@H](C4)[C@@H]3C2=O)CC1` [Compound 20], the inhibition at 1 µM in the assay with Wnt signaling turned out to be 0%. Still for that read-out and setting: next, `Cc1cncc(NC(=O)[C@H]2CC[C@H](N3C(=O)[C@@H]4[C@@H]5CC[C@@H](C5)[C@@H]4C3=O)CC2)c1` [Compound 21]: 49 ± 5%.
